# Source: paper PMC7349874, “High Content Screening Using New U2OS Reporter Cell Models Identifies Harmol Hydrochloride as a Selective and Competitive Antagonist of the Androgen Receptor” (Cells, 2020)
# Structures can show the parent of a compound that is named as a salt.
# Experiments:
# AR [1] = target: T1, AR (Homo sapiens, UniProt P10275); experiment: cell-based; assay type: binding
# T1 sequence (P10275 1-920): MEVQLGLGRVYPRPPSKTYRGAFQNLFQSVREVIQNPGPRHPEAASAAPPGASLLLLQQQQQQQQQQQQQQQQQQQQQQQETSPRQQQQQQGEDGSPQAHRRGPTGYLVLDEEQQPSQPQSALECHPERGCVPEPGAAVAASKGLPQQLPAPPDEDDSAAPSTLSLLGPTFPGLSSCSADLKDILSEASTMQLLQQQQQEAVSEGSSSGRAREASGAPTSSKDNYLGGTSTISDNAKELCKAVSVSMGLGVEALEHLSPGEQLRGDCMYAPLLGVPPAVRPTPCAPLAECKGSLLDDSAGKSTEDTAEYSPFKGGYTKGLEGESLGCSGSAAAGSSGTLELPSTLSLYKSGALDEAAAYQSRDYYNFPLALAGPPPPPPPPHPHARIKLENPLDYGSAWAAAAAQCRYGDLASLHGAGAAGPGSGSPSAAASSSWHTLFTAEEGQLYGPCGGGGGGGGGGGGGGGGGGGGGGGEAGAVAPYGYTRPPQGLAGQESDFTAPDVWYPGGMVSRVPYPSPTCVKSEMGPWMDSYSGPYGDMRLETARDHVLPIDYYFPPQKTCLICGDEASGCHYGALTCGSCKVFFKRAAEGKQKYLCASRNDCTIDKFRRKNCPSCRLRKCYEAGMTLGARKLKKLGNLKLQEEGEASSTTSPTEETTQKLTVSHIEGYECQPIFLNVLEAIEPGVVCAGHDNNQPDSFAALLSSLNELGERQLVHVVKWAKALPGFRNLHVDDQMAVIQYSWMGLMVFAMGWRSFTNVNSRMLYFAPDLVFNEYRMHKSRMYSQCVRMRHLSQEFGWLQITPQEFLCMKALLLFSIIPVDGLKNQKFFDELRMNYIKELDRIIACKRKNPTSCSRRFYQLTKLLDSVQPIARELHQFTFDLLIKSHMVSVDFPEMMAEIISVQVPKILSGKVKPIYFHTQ
# Method: U2OS hAR-AREluc cells were seeded at a density of 80,000 cells per well in clear-bottomed 96-well plates (Greiner Bio-One, Courtaboeuf, France). […] Cells were then lysed with 50 μL of LSC-cocktail (Emulsifier-Safe, Packard BioScience, Wellesley, MA, USA), and [^3H]-bound radioactivity was counted in scintillation liquid with a microbeta trilux (Perkin Elmer, Wellesley, MA, USA). Non-specific binding was determined in the presence of 300 nM unlabeled R1881. Specific binding was calculated by subtracting non-specific binding from the total binding, and expressed as disintegrations per minute (dpm). […] Relative binding affinities (RBA) were calculated as IC50 ratios between each competitor and R1881. The RBA value for R1881 was arbitrarily set at 100.
# Non-specific binding was determined in the presence of 300 nM unlabeled R1881. Specific binding was calculated by subtracting non-specific binding from total binding. Results were plotted as % of maximal [^3H]-labeled R1881 binding as a function of drug concentrations (n = 3 ± SEM).
# [2] = target: T2, progesterone receptor (PR) (Homo sapiens, UniProt P06401); experiment: Transactivation assay in HELN PR cells; assay type: cell-based; conditions: 16 h, antagonism in the presence of 1 nM R5020
# T2 sequence (P06401 679-933 limits assumed): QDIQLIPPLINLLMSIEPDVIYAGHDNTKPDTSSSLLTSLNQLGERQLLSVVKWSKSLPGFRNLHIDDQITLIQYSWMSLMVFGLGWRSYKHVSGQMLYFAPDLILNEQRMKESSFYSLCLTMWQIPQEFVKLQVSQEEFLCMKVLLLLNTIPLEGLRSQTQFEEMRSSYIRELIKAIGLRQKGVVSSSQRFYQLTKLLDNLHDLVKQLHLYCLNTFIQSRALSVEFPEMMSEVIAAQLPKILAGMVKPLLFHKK
# From the text: HG5LN MR and HG5LN PXR luciferase reporter cell lines were obtained by stable expression of individual ligand binding domains fused to GAL4 DNA binding domain in HG5LN (HeLa GAL4REx5-luciferase) cells, as previously described. HELN PR cells were obtained by stably expressing PR with the ERα DNA binding domain in HELN (HeLa ERE-luciferase) cells and HMLN GR cells were obtained by stable co-transfection of HeLa cells with a plasmid encoding for a glucocorticoid responsive gene (MMTV-Luc-SV-Neo) and a glucocorticoid receptor expressing plasmid, as previously described.
# Agonistic activities were evaluated in HMLN GR, HELN PR, HG5LN MR, and HG5LN PXR cells, using dexamethasone 100 nM, R5020 100 nM, aldosterone 100 nM, and SR12813 3 μM as a positive control, respectively. […] RU486 was used as a control antagonist for GR and PR, and spironolactone for MR.
# HMLN glucocorticoid receptor (GR), HG5LN mineralocorticoid receptor (MR), HELN progesterone receptor (PR) and HG5LN PXR cells were used to evaluate the antagonistic effect of the tested compounds on (A) the glucocorticoid receptor (GR), (B) the mineralocorticoid receptor (MR), (C) the progesterone receptor (PR) and (D) the agonistic activity towards the pregnane X receptor (PXR). […]
# [3] = parameters: method as in PMID 19363158; conditions: cited from earlier work
# AR [4] = conditions: cited from earlier work
smiles,measurement,setting,value
"Cc1nccc2c1[nH]c1cc(O)ccc12 [harmol hydrochloride, Harmol hydrochloride monohydrate]",Concentration competing with ligand binding relative to enzalutamide,AR [1],3.5 fold
same,IC50,"AR [1]; 0.3 nM [3H]-R1881, 3 h, 37 °C, read-out: IC50 of competition with [3H]-R1881 for AR binding",540 nM
same,Activity towards PR,[2],did not show any significant activity
same,Metabolism when administered in mice,[3],rapidly metabolized
same,Concentration competing for ligand binding relative to the concentration necessary to fully inhibit AR activity,AR [4],30- to 100 fold
same,Inhibition of AR activation in a chemical genomic screen,AR [4],weak inhibitor
same,Nature of AR inhibition reported earlier,AR [4],non-competitive inhibitor of AR
